According to PMC8645336, “Benchmarking a highly selective USP30 inhibitor for enhancement of mitophagy and pexophagy” (Life Science Alliance, 2021):

What was measured:
Assay in all cases: biochemical
Set-up in all cases: Ubiquigent DUB profiler selectivity panel, remaining enzyme activity as % of control
Settings in all cases: read-out: % of control remaining
[1] = molecular target: T1, OTUD3 (Homo sapiens, UniProt Q5T2D3)
T1 sequence (Q5T2D3 1-398): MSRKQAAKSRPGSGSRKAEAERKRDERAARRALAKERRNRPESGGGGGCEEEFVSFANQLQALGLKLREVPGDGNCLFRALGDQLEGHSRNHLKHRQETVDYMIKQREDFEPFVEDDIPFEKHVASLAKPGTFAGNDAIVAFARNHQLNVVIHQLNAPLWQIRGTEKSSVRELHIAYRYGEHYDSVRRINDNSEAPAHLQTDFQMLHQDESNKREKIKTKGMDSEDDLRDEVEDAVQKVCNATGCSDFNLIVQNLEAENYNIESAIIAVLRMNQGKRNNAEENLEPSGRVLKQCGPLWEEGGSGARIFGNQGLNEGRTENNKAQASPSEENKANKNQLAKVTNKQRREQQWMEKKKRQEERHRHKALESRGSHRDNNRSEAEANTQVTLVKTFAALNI
Method in brief: (§1)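 In YFP-PRKN-overexpressing hTERT-RPE1 cells, 1 h antimycin A plus oligomycin A (1 μM each) with CMPD-39, then Western blot of TOMM20 ubiquitylation. Target engagement: 2 h compound, then 10 min HA-Ub-PA at 37°C, read as USP30 shift. DUB panel (>40 enzymes) screened at 1-100 μM.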

[2] = molecular target: USP7 (Homo sapiens, UniProt Q93009)
USP7, sequence (Q93009 whole entry): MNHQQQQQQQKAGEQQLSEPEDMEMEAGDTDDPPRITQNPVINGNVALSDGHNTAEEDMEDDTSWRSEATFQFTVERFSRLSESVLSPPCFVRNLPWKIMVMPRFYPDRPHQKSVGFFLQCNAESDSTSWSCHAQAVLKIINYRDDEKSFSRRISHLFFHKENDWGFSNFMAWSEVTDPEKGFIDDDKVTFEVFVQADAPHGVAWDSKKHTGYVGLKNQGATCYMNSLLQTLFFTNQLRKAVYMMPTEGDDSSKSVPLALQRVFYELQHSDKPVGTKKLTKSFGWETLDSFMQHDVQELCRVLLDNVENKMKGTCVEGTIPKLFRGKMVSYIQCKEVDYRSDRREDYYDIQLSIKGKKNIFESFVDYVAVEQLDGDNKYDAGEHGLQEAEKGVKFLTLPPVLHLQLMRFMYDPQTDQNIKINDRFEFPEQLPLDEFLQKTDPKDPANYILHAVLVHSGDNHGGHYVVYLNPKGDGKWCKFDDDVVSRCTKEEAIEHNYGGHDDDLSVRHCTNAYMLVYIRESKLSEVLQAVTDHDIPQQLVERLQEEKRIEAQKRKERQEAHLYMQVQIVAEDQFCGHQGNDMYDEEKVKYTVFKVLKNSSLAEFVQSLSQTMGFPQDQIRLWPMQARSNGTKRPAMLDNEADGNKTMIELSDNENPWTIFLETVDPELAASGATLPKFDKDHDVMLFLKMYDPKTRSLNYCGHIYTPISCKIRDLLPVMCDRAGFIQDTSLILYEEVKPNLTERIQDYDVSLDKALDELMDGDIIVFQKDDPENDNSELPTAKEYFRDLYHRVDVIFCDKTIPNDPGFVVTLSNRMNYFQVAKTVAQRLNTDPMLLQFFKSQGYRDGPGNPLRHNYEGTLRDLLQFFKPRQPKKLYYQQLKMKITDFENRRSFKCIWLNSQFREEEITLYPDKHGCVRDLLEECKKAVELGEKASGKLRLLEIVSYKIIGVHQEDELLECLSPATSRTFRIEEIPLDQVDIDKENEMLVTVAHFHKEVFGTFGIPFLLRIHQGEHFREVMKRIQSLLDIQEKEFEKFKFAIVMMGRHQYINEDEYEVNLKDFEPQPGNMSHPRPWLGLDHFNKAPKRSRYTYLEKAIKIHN
Method in brief: as §1

[3] = molecular target: T2, USP21 (Homo sapiens, UniProt Q9UK80)
T2 sequence (Q9UK80 1-565): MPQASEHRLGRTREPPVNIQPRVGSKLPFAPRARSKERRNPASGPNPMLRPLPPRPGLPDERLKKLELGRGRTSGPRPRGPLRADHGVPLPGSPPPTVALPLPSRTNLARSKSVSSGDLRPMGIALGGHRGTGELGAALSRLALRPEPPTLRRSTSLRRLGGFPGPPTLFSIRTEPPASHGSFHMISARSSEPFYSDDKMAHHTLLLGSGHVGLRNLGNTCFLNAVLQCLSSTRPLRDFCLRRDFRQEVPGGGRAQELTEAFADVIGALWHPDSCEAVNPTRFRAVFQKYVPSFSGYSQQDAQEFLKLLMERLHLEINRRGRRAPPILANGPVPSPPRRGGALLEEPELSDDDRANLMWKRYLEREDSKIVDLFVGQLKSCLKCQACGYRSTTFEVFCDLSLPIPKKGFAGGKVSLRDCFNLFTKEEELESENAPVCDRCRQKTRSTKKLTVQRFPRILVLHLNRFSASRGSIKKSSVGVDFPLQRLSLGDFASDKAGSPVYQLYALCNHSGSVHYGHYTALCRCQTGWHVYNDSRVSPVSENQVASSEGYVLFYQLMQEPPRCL
Method in brief: as §1

[4] = molecular target: USP6 (Homo sapiens, UniProt P35125)
USP6, sequence (P35125 whole entry): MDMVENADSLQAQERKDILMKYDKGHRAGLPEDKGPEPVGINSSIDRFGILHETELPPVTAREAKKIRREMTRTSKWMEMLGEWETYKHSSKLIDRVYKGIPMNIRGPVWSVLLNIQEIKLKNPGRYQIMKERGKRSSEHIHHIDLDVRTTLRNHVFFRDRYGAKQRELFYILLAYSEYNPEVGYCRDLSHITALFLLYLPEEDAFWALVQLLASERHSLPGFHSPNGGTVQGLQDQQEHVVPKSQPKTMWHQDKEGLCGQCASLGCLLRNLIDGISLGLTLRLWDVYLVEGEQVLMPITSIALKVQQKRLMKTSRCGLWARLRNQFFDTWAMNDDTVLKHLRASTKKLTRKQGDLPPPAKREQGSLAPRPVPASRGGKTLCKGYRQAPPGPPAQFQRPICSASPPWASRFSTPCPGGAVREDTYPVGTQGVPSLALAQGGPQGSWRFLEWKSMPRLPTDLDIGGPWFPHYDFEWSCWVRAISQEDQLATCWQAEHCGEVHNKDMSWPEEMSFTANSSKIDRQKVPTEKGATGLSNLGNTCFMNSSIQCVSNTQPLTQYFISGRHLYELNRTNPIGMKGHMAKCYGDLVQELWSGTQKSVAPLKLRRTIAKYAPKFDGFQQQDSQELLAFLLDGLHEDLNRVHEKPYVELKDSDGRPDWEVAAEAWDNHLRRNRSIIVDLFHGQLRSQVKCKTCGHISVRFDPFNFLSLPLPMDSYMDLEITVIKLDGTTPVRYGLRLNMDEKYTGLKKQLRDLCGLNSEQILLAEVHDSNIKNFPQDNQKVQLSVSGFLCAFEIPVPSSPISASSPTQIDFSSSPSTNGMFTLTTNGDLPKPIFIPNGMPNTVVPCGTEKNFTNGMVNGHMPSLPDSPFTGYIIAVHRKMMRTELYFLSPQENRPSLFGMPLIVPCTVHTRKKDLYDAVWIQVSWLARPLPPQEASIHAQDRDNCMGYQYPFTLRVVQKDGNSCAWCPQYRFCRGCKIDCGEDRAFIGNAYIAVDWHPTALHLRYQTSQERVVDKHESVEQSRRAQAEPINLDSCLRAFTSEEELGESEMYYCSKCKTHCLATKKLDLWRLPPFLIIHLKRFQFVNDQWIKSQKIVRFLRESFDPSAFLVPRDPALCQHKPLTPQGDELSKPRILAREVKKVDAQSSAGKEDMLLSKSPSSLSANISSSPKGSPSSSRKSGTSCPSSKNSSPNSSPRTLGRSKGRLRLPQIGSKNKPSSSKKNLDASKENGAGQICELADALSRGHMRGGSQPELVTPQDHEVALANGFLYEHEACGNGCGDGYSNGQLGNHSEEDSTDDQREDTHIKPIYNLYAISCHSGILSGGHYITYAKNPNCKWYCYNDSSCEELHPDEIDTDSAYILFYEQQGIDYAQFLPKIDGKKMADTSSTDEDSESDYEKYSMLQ
Method in brief: as §1

[5] = molecular target: T3, OTUD5 (p177S) (Homo sapiens, UniProt Q96G74)
T3 construct: phosphorylated S177
T3 sequence (Q96G74 1-571): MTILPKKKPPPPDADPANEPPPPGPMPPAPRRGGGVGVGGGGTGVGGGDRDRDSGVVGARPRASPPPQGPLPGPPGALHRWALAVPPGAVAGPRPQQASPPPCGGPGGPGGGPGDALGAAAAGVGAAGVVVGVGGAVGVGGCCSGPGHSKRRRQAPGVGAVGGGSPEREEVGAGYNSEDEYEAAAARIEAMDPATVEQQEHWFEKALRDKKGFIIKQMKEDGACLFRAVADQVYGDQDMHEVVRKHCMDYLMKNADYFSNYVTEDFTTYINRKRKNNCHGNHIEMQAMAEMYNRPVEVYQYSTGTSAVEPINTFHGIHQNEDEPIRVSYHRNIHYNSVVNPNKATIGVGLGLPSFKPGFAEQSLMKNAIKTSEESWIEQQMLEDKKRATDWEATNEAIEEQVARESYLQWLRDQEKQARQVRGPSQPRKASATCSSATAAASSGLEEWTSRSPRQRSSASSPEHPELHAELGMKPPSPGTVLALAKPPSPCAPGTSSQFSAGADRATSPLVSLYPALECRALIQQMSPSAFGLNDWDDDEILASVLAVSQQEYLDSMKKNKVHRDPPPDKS
Method in brief: as §1

[6] = molecular target: USP11 (Homo sapiens, UniProt P51784)
USP11, sequence (P51784 whole entry): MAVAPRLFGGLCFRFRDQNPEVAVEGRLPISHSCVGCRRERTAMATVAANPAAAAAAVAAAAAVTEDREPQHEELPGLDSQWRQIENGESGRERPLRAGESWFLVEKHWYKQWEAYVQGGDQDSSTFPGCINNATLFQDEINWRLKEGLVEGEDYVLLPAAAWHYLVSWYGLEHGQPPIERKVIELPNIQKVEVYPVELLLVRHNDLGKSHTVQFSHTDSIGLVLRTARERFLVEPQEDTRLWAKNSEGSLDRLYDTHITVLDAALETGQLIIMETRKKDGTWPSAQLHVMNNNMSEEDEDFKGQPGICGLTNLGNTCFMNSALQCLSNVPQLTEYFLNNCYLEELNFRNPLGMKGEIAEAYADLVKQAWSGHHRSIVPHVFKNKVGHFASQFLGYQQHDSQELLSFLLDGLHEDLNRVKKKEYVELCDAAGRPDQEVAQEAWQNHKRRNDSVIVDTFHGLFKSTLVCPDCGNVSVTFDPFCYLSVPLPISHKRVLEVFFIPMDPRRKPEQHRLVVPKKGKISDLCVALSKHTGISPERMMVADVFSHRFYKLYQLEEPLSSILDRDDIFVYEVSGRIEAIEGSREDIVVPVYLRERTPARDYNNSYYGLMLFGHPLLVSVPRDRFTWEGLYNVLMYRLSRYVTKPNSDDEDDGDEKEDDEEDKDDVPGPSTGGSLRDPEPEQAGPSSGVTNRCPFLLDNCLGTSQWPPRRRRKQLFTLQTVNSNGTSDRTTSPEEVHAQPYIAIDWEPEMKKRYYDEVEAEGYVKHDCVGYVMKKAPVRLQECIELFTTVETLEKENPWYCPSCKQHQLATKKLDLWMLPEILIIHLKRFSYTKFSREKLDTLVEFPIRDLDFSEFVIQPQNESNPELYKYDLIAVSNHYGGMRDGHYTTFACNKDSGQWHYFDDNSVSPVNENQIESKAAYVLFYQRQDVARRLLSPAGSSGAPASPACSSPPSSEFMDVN
Method in brief: as §1

SMILES: CC(C)(C)NS(=O)(=O)c1ccc(NC(=O)[C@H](Cc2ccccc2)NC(=O)c2ccc(F)cc2)cc1 [compound 39, CMPD-39]
- remaining activity at 1 µM [1]: 105%
- remaining activity at 10 µM [1]: 101%
- remaining activity at 100 µM [1]: 107%
- remaining activity at 1 µM [2]: 106%
- remaining activity at 10 µM [2]: 98.4%
- remaining activity at 100 µM [2]: 94.1%
- remaining activity at 1 µM [3]: 102%
- remaining activity at 10 µM [3]: 94%
- remaining activity at 100 µM [3]: 90.9%
- remaining activity at 1 µM [4]: 101%
- remaining activity at 10 µM [4]: 96.8%
- remaining activity at 100 µM [4]: 90.6%
- remaining activity at 1 µM [5]: 108%
- remaining activity at 10 µM [5]: 106%
- remaining activity at 100 µM [5]: 89.9%
- remaining activity at 1 µM [6]: 103%
- remaining activity at 10 µM [6]: 98.4%
- remaining activity at 100 µM [6]: 97.2%
